Here are results for 2 compounds from ChEMBL document CHEMBL4616589, “Exploring structure-promiscuity relationships using dual-site promiscuity cliffs and corresponding single-site analogs” (Bioorg Med Chem, 2020).

Experiment [1] deals with Tyrosine-protein kinase ABL1 (Homo sapiens, UniProt P00519). The experiment is described as follows: Inhibition of ABL1 (unknown origin).
In experiment [2] the target is Vascular endothelial growth factor receptor 1 (Homo sapiens, UniProt P17948). The experiment in a line: Inhibition of VEGFR1 (unknown origin).
Sequence of Vascular endothelial growth factor receptor 1 (P17948 whole entry): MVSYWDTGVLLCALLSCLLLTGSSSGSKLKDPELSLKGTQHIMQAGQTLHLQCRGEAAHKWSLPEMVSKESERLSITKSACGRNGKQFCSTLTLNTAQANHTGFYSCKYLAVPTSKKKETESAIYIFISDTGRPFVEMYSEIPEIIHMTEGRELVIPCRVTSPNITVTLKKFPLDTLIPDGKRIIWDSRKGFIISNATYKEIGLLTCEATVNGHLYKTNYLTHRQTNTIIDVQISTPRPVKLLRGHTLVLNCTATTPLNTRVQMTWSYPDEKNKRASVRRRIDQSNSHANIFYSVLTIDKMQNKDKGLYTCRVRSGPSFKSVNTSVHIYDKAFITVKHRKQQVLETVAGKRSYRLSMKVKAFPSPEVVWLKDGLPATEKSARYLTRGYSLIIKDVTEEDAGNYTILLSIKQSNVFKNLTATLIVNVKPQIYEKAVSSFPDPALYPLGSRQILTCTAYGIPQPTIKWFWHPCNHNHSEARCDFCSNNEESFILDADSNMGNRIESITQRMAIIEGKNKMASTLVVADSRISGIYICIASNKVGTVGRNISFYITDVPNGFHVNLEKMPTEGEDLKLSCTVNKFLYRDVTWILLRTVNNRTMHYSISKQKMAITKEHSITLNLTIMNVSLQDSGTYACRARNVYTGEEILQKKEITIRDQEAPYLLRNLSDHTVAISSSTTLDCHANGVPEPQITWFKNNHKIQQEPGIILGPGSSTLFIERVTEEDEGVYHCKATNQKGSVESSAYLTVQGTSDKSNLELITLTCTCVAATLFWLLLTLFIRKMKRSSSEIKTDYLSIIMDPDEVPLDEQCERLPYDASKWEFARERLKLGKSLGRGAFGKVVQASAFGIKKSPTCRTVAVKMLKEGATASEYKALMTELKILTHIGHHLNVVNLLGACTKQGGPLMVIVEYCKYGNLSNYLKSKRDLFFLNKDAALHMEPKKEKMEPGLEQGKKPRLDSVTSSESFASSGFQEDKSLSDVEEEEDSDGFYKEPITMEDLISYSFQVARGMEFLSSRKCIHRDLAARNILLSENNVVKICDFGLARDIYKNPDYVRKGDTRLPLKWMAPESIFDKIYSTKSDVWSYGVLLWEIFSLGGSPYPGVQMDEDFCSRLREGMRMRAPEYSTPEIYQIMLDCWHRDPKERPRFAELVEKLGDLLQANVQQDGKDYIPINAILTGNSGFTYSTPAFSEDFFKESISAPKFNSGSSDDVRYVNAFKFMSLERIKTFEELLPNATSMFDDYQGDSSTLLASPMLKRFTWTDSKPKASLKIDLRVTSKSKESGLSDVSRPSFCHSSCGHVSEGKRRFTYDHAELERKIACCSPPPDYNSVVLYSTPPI

Sequence of Tyrosine-protein kinase ABL1 (P00519 whole entry): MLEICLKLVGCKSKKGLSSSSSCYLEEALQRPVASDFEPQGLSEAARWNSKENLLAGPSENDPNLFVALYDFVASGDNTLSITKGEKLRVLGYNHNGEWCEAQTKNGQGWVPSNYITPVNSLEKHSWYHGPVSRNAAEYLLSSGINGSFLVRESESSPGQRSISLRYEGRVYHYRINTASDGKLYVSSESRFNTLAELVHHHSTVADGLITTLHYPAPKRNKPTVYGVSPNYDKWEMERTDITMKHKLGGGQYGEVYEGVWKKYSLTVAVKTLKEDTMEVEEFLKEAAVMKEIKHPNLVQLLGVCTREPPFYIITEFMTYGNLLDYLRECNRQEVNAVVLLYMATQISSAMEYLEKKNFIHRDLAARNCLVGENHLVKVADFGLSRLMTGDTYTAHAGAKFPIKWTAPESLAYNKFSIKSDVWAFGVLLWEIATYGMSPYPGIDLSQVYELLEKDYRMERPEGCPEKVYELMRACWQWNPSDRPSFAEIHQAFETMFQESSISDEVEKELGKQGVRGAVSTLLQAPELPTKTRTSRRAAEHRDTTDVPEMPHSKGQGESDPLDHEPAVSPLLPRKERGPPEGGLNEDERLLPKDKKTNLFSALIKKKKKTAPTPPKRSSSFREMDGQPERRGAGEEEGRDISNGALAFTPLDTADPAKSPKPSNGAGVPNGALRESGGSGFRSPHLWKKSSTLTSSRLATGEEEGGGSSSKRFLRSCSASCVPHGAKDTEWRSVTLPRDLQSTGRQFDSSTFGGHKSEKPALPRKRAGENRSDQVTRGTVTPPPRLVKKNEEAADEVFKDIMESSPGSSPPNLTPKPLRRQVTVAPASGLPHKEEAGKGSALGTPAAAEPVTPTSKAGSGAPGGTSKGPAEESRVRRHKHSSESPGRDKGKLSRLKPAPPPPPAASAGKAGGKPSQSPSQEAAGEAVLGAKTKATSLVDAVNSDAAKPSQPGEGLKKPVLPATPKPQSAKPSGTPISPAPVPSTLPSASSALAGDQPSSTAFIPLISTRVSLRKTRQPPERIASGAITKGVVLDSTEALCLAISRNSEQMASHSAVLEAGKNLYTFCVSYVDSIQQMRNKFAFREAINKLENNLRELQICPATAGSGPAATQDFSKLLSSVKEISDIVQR

On to `CCCCNc1ncnc2c1cnn2CC(Cl)c1ccccc1` (configuration not stated), for which, in experiment [1], the affinity corresponds to a Ki of 2 µM. With `ClC(Cn1ncc2c(NCc3ccccc3)ncnc21)c1ccccc1` (configuration not stated), in experiment [2], the midpoint of inhibition, the IC50, lay at 1 µM.

In general, Ki refers to a dissociation constant, usually derived from enzyme kinetics or from competition with a known ligand. Lower therefore signals tighter binding. The IC50 is the concentration that gives 50% inhibition. A high value points to weaker potency.
